Experimental data from patent US12558333B2, “Agent for ameliorating and/or preventing sickle cell disease” (The University of Tokyo, priority 2019, dated 2026).
Structures can show the parent of a compound that is named as a salt.

Columns and labels:
SCD homo mice = details: normal oxygen concentration; 4 weeks; 5-ALA hydrochloride 50 mg/kg/day and/or SFC 3.9 mg/kg/day; vs physiological saline (FIG. 10); combination P<0.05
Method: All the prepared smear specimens were stained with May-Giemsa in the same manner as in Example 2, and the ratio of sickle cells to all red blood cells was measured. The rate of the sickle cells of the groups were compared with each other to examine the effect of the combination of 5-ALA hydrochloride and SFC on the rate of the in vivo sickle cells.

SCD homo mouse = experiment: Bleeding stress due to blood sampling in SCD model mice (blood LDH level); type: in vivo; details: 50/3.9 mg/kg single administration after first blood sampling, blood sampling 2 after 3 hours, vs physiological saline
Method: Using the LDH levels in blood in the SCD model mice as an index, the effect of 5-ALA hydrochloride on bleeding stress due to blood sampling in the SCD patients was examined.
The LDH levels in the blood collected before and after the administration were measured, and the effect of the combination of 5-ALA hydrochloride and SFC on bleeding stress due to blood sampling was evaluated.

[1] = system: red blood cells collected from SCD homo mice; experiment: Sickling by hypoxia exposure of cultured red blood cells collected from SCD homo mice; type: cell-based, mouse; details: then 4% O2 for 1.5 hours
Source text: SCD model mice aged 8 to 20 weeks were used. In the mice, a human HBA gene and a human HBB gene are knocked in a mouse HBA gene locus and a mouse HBB gene locus, respectively, and a gene mutation (β^s mutation) causing amino acid substitution (Val6Glu) causing SCD is introduced into the human HBB gene. Furthermore, a human HBG gene is introduced, and expression switching from post-natal γ-globin to β-globin is designed to occur as in humans. […] The SCD homo mouse was anesthetized with isoflurane, and 100 μl of blood was then collected from the vein behind the jawbone into an EDTA-2Na-coated blood sampling tube using an animal lamp set. The coagulation of the blood was prevented by lightly tapping the tube. The collected blood was transferred to a 1.5 ml tube, and centrifuged for 10 minutes under conditions of 3000 rpm and 4° C. After removing the supernatant, 1 ml of PBS was added to the precipitated red blood cells, followed by mixing by inversion, to wash the cells. The red blood cells obtained by repeating this washing operation again were diluted 200 times with a cell culture solution (RPMI 1640, 10% FBS, 1% Penicillin-Streptomycin-Fungizone Cocktail), and cultured under the conditions of 37° C., 5% CO2, and 21% O2. This red blood cell culture solution was used in the experiment within 5 days from the start of culture. […]

Compound	rate of the in vivo sickle cells (SCD homo mice)	increase in the LDH level in blood after blood sampling (SCD homo mouse)	red blood cells exhibiting a sickle form ([1]; 50 μM for 4 hours, SCD homo mouse No. 72, vs 0 μM (FIG. 1))	sickling rate ([1]; 10, 25 and 50 μM for 4 hours, vs 0 μM (FIG. 2))
NCC(=O)CCC(=O)O [5-ALA hydrochloride, 5-aminolevulinic acid]	slightly decreases	markedly suppressed	remarkable decrease	concentration-dependent decrease
sodium ferrous citrate [SFC]	little effect	–	–	–
